Source: US20080045510A1, “Succinate salts of 6-methoxy-8-[4-(1-(5-fluoro)-quinolin-8-yl-piperidin-4-yl)-piperazin-1-yl]-quinoline and crystalline forms thereof” (Wyeth, priority 2006, published 2008)
Blank lines part the entries; values can stand above or below the molecule they belong to.

Assays:
[1] = solubility in aqueous media / water; assay type: physicochemical; conditions: even in the presence of surfactants
[2] = in vivo

solubility [1]: ~0.4 µg/mL
Compound: COc1cc(N2CCN(C3CCN(c4ccc(F)c5cccnc45)CC3)CC2)c2ncccc2c1 [free base, 6-methoxy-8-[4-(1-(5-fluoro)-quinolin-8-yl-piperidin-4-yl)-piperazin-1-yl]-quinoline]

hygroscopicity (believed): substantially non-hygroscopic
conversion of crystalline form in water (upon dispersion in water for a few minutes in ambient conditions): convert to Form D
Compound: COc1cc(N2CCN(C3CCN(c4ccc(F)c5cccnc45)CC3)CC2)c2ncccc2c1.O=C(O)CCC(=O)O.O=C(O)CCC(=O)O.O=C(O)CCC(=O)O [Form A, 6-methoxy-8-[4-(1-(5-fluoro)-quinolin-8-yl-piperidin-4-yl)-piperazin-1-yl]-quinoline trisuccinate]

Compound: COc1cc(N2CCN(C3CCN(c4ccc(F)c5cccnc45)CC3)CC2)c2ncccc2c1.O=C(O)CCC(=O)O.O=C(O)CCC(=O)O.O=C(O)CCC(=O)O [trisuccinate salt, 6-methoxy-8-[4-(1-(5-fluoro)-quinolin-8-yl-piperidin-4-yl)-piperazin-1-yl]-quinoline trisuccinate]
bioavailability [2]: improved bioavailability over the free base

conversion of crystalline form in THF/heptane slurry (slurried for two hours in a mixture of THF and heptane in an ice/water bath): convert to Form A
Compound: COc1cc(N2CCN(C3CCN(c4ccc(F)c5cccnc45)CC3)CC2)c2ncccc2c1.O=C(O)CCC(=O)O.O=C(O)CCC(=O)O.O=C(O)CCC(=O)O [Form B, 6-methoxy-8-[4-(1-(5-fluoro)-quinolin-8-yl-piperidin-4-yl)-piperazin-1-yl]-quinoline trisuccinate]
